Earlier results on 4 compounds are cited in patent EP4803073A2, “METHODS AND COMPOSITIONS FOR TREATMENT OF DISORDERS AMELIORATED BY MUSCARINIC RECEPTOR ACTIVATION” (Puretech Health LLC, priority 2009, dated 2011).

For data set [1] the following is noted: phase I and subsequent trials.
The conditions of data set [2]: double-blind placebo controlled trial.
The conditions of data set [3]: given with the muscarinic agonist xanomeline; syncope is a side effect observed with xanomeline.
The conditions of data set [4]: clozapine-associated sialorrhea.
The conditions of data set [5]: with the anticholinergic agent glycopyrrolate; escalating amounts of RS-86.

As for `CCCCCCOc1nsnc1C1=CCCN(C)C1` [xanomeline], the side effects entry in data set [1] is recorded as “unacceptable GI side effects”. Further, the alleviation of schizophrenia entry in data set [2] is “alleviation of schizophrenia was observed”.
With `C[N+]1(C)[C@@H]2C[C@@H](OC(=O)[C@H](CO)c3ccccc3)C[C@H]1[C@@H]1O[C@@H]12` [methscopolamine], the effect on syncope entry in data set [3] is given as “no effect on syncope”.
As for `Clc1cccc(Cl)c1N=C1NCCN1` [clonidine], the “efficacy in reducing sialorrhea” value in data set [4] is on record as “shown efficacy in reducing sialorrhea in small scale trials”.
`CCN1C(=O)CC2(CCN(C)CC2)C1=O` [RS-86]: in data set [5], the improvement in cognition entry is given as “did not result in any improvement in cognition”.
